Laboratory results as given in PubChem BioAssay (NCI).
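Each compound was tested at five concentrations against cells in 96-well plates for 48 hours. The concentration for full growth arrest is given as TGI.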 Where a SMILES comes first, the peptide text is derived from it. [ ]: non-standard residue; d: D form. The star is where a group is joined. Chg = N[CH](C(=O)O)C1CCCCC1; Cbz = O=C(OCc1ccccc1)*; OBn = c1ccc(CO*)cc1

Experiments:
Assay in all cases: growth of human tumour cells (NCI), 48 h
NCI/ADR-RES ovarian = tested on: NCI/ADR-RES ovarian
ACHN renal = tested on: ACHN renal
OVCAR-8 ovarian = tested on: OVCAR-8 ovarian
SNB-75 CNS = tested on: SNB-75 CNS
MDA-MB-231 breast = tested on: MDA-MB-231 breast
SR leukemia = tested on: SR leukemia
CCRF-CEM leukemia = tested on: CCRF-CEM leukemia
EKVX NSCLC = tested on: EKVX NSCLC
DU-145 prostate = tested on: DU-145 prostate
U251 CNS = tested on: U251 CNS
MOLT-4 leukemia = tested on: MOLT-4 leukemia
SNB-19 CNS = tested on: SNB-19 CNS
IGROV1 ovarian = tested on: IGROV1 ovarian
KM12 colon = tested on: KM12 colon
A498 renal = tested on: A498 renal
COLO 205 colon = tested on: COLO 205 colon
RPMI-8226 leukemia = tested on: RPMI-8226 leukemia
MDA-N = tested on: MDA-N
NCI-H522 lung = tested on: NCI-H522 lung
SF-268 CNS = tested on: SF-268 CNS
MDA-MB-435 = tested on: MDA-MB-435
HCT-15 colon = tested on: HCT-15 colon
UO-31 renal = tested on: UO-31 renal
SF-295 CNS = tested on: SF-295 CNS
MALME-3M melanoma = tested on: MALME-3M melanoma
A549 NSCLC = tested on: A549 NSCLC
UACC-257 melanoma = tested on: UACC-257 melanoma
OVCAR-5 ovarian = tested on: OVCAR-5 ovarian
LOX IMVI melanoma = tested on: LOX IMVI melanoma
HCT-116 colon = tested on: HCT-116 colon
SW-620 colon = tested on: SW-620 colon
HOP-92 NSCLC = tested on: HOP-92 NSCLC
K-562 leukemia = tested on: K-562 leukemia
SK-OV-3 ovarian = tested on: SK-OV-3 ovarian
M14 melanoma = tested on: M14 melanoma
HS 578T breast = tested on: HS 578T breast
HT29 colon = tested on: HT29 colon
786-0 renal = tested on: 786-0 renal
SK-MEL-28 melanoma = tested on: SK-MEL-28 melanoma
SN12C renal = tested on: SN12C renal
SK-MEL-5 melanoma = tested on: SK-MEL-5 melanoma
HL-60(TB) leukemia = tested on: HL-60(TB) leukemia
NCI-H23 lung = tested on: NCI-H23 lung
TK-10 renal = tested on: TK-10 renal
T-47D breast = tested on: T-47D breast
NCI-H226 lung = tested on: NCI-H226 lung
OVCAR-4 ovarian = tested on: OVCAR-4 ovarian
RXF 393 renal = tested on: RXF 393 renal
CAKI-1 renal = tested on: CAKI-1 renal
SF-539 CNS = tested on: SF-539 CNS
HOP-62 NSCLC = tested on: HOP-62 NSCLC
PC-3 prostate = tested on: PC-3 prostate
OVCAR-3 ovarian = tested on: OVCAR-3 ovarian
HCC-2998 colon = tested on: HCC-2998 colon
NCI-H460 lung = tested on: NCI-H460 lung
SK-MEL-2 melanoma = tested on: SK-MEL-2 melanoma
MCF7 breast = tested on: MCF7 breast
UACC-62 melanoma = tested on: UACC-62 melanoma

Measured: TGI

Nc1c(N2CCCCC2)c(=O)nc2[nH]/c(=C\c3ccco3)c(=O)n12
> 100 µM: NCI/ADR-RES ovarian | ACHN renal | OVCAR-8 ovarian | SNB-75 CNS | MDA-MB-231 breast | SR leukemia | CCRF-CEM leukemia | EKVX NSCLC | DU-145 prostate | U251 CNS | MOLT-4 leukemia | SNB-19 CNS | IGROV1 ovarian | KM12 colon | A498 renal | COLO 205 colon | RPMI-8226 leukemia | MDA-N | NCI-H522 lung | SF-268 CNS | MDA-MB-435 | HCT-15 colon | UO-31 renal | SF-295 CNS | MALME-3M melanoma | A549 NSCLC | UACC-257 melanoma | OVCAR-5 ovarian | LOX IMVI melanoma | HCT-116 colon | SW-620 colon | HOP-92 NSCLC | K-562 leukemia | SK-OV-3 ovarian | M14 melanoma | HS 578T breast | HT29 colon | 786-0 renal | SK-MEL-28 melanoma | SN12C renal | SK-MEL-5 melanoma | HL-60(TB) leukemia | NCI-H23 lung | TK-10 renal | T-47D breast | NCI-H226 lung | OVCAR-4 ovarian | RXF 393 renal | CAKI-1 renal | SF-539 CNS

COP(=O)(OC)/C(=C\C1=CN(C(c2ccccc2)(c2ccccc2)c2ccccc2)CN1)NC=O
35.2 µM: DU-145 prostate
27 µM: NCI-H460 lung
49.2 µM: IGROV1 ovarian | T-47D breast
30.6 µM: MOLT-4 leukemia
43.9 µM: M14 melanoma
33.5 µM: NCI-H522 lung
29.9 µM: NCI/ADR-RES ovarian
40.5 µM: COLO 205 colon
39.9 µM: RPMI-8226 leukemia
28.2 µM: HT29 colon
39.8 µM: SNB-75 CNS
42.4 µM: SW-620 colon
39.6 µM: OVCAR-4 ovarian
38.4 µM: HCC-2998 colon
51.2 µM: HS 578T breast
33.1 µM: HCT-15 colon | SK-OV-3 ovarian
30.5 µM: A549 NSCLC
54.8 µM: OVCAR-8 ovarian
32.5 µM: SK-MEL-28 melanoma
32.2 µM: A498 renal
29.6 µM: HCT-116 colon | SK-MEL-5 melanoma
39.5 µM: NCI-H226 lung | CAKI-1 renal
23.1 µM: MDA-MB-435
31.3 µM: HOP-62 NSCLC
26.3 µM: LOX IMVI melanoma
30.4 µM: SK-MEL-2 melanoma
49.7 µM: TK-10 renal
> 100 µM: K-562 leukemia
36.3 µM: SN12C renal | NCI-H23 lung
28.9 µM: ACHN renal
23 µM: HOP-92 NSCLC
28.4 µM: MDA-N
29.1 µM: UO-31 renal
43.4 µM: SNB-19 CNS
50.9 µM: HL-60(TB) leukemia
33.9 µM: MDA-MB-231 breast
19.7 µM: PC-3 prostate
30.2 µM: SF-295 CNS
29.8 µM: U251 CNS | OVCAR-3 ovarian
31.8 µM: OVCAR-5 ovarian
34.1 µM: UACC-257 melanoma
33.7 µM: SR leukemia

Cc1[nH]n(-c2ncc(C#N)c(=O)[nH]2)c(=O)c1CCO
> 100 µM: HOP-62 NSCLC | NCI/ADR-RES ovarian | ACHN renal | OVCAR-8 ovarian | MDA-MB-231 breast | SR leukemia | CCRF-CEM leukemia | EKVX NSCLC | DU-145 prostate | U251 CNS | MOLT-4 leukemia | SNB-19 CNS | IGROV1 ovarian | KM12 colon | PC-3 prostate | A498 renal | COLO 205 colon | RPMI-8226 leukemia | MDA-N | NCI-H522 lung | SF-268 CNS | MDA-MB-435 | HCT-15 colon | UO-31 renal | OVCAR-3 ovarian | SF-295 CNS | MALME-3M melanoma | A549 NSCLC | UACC-257 melanoma | OVCAR-5 ovarian | LOX IMVI melanoma | HCT-116 colon | SW-620 colon | HOP-92 NSCLC | MCF7 breast | K-562 leukemia | SK-OV-3 ovarian | M14 melanoma | HS 578T breast | HT29 colon | HCC-2998 colon | UACC-62 melanoma | 786-0 renal | SK-MEL-28 melanoma | SN12C renal | SK-MEL-5 melanoma | NCI-H23 lung | TK-10 renal | NCI-H460 lung | T-47D breast | NCI-H226 lung | SK-MEL-2 melanoma | OVCAR-4 ovarian | RXF 393 renal | CAKI-1 renal | SF-539 CNS
99 µM: SNB-75 CNS

COC(=O)C(NC(=O)C(CC(=O)OCc1ccccc1)NC(=O)OCc1ccccc1)C1CCCCC1 (configuration not stated) (Cbz-Asp(OBn)-[Chg]-OMe; configuration not given here)
> 100 µM: HOP-62 NSCLC | NCI/ADR-RES ovarian | ACHN renal | OVCAR-8 ovarian | SNB-75 CNS | MDA-MB-231 breast | SR leukemia | CCRF-CEM leukemia | EKVX NSCLC | DU-145 prostate | U251 CNS | MOLT-4 leukemia | SNB-19 CNS | IGROV1 ovarian | KM12 colon | PC-3 prostate | COLO 205 colon | RPMI-8226 leukemia | MDA-N | NCI-H522 lung | SF-268 CNS | MDA-MB-435 | HCT-15 colon | UO-31 renal | OVCAR-3 ovarian | SF-295 CNS | MALME-3M melanoma | A549 NSCLC | UACC-257 melanoma | OVCAR-5 ovarian | LOX IMVI melanoma | HCT-116 colon | SW-620 colon | HOP-92 NSCLC | MCF7 breast | K-562 leukemia | SK-OV-3 ovarian | M14 melanoma | HT29 colon | HCC-2998 colon | UACC-62 melanoma | 786-0 renal | SK-MEL-28 melanoma | SN12C renal | SK-MEL-5 melanoma | HL-60(TB) leukemia | NCI-H23 lung | TK-10 renal | NCI-H460 lung | T-47D breast | NCI-H226 lung | SK-MEL-2 melanoma | OVCAR-4 ovarian | RXF 393 renal | CAKI-1 renal | SF-539 CNS
81.3 µM: HS 578T breast

OC[C@H]1C[C@@H]2Cc3ccccc3N2N1
> 100 µM: HOP-62 NSCLC | NCI/ADR-RES ovarian | ACHN renal | OVCAR-8 ovarian | SNB-75 CNS | MDA-MB-231 breast | SR leukemia | CCRF-CEM leukemia | EKVX NSCLC | DU-145 prostate | U251 CNS | MOLT-4 leukemia | SNB-19 CNS | IGROV1 ovarian | KM12 colon | PC-3 prostate | A498 renal | COLO 205 colon | MDA-N | NCI-H522 lung | SF-268 CNS | MDA-MB-435 | HCT-15 colon | OVCAR-3 ovarian | SF-295 CNS | MALME-3M melanoma | A549 NSCLC | UACC-257 melanoma | OVCAR-5 ovarian | LOX IMVI melanoma | HCT-116 colon | SW-620 colon | HOP-92 NSCLC | K-562 leukemia | SK-OV-3 ovarian | M14 melanoma | HS 578T breast | HT29 colon | HCC-2998 colon | UACC-62 melanoma | 786-0 renal | SK-MEL-28 melanoma | SN12C renal | SK-MEL-5 melanoma | HL-60(TB) leukemia | NCI-H23 lung | TK-10 renal | NCI-H460 lung | T-47D breast | NCI-H226 lung | SK-MEL-2 melanoma | OVCAR-4 ovarian | RXF 393 renal | CAKI-1 renal | SF-539 CNS
